According to article PMC11108815 (Heliyon, 2024):
Marks after values point to notes of the source that are not given here. Values belong to the compound of their own block, whether it stands above or below them.

Experiments:
[1] = Pharmacokinetics in rat plasma; format: in vivo, Wistar rats; details: for AUC(0-inf): AUC0-∞; for CL/F: CLz/F; for MRT last: MRT0-t; for MRT inf: MRT0-∞
[2] = Stability test of QC samples; format: physicochemical, rat
[3] = FS-C: normal (blank) rats, oral FS 100 mg kg^−1, n = 6
[4] = FS-M: microcirculation dysfunction model rats, oral FS 100 mg kg^−1, n = 6
[5] = FT-C: normal (blank) rats, oral FT 100 mg kg^−1, n = 6
[6] = FT-M: microcirculation dysfunction model rats, oral FT 100 mg kg^−1, n = 6
[7] = Store at 4 °C for 24 h, high concentration QC sample in rat plasma
[8] = Store at 4 °C for 24 h, low concentration QC sample in rat plasma
[9] = Store at 4 °C for 24 h, medium concentration QC sample in rat plasma
[10] = Store at room temperature for 12 h, high concentration QC sample in rat plasma
[11] = Store at room temperature for 12 h, low concentration QC sample in rat plasma
[12] = Store at room temperature for 12 h, medium concentration QC sample in rat plasma
[13] = Store at −20 °C for 20 days, high concentration QC sample in rat plasma
[14] = Store at −20 °C for 20 days, low concentration QC sample in rat plasma
[15] = Store at −20 °C for 20 days, medium concentration QC sample in rat plasma
[16] = Three freeze-thaw cycles, high concentration QC sample in rat plasma
[17] = Three freeze-thaw cycles, low concentration QC sample in rat plasma
[18] = Three freeze-thaw cycles, medium concentration QC sample in rat plasma
[19] = Wistar, rat, plasma, po, 100 mg/kg, FS-C: normal (blank) rats, oral FS 100 mg kg^−1, n = 6
[20] = Wistar, rat, plasma, po, 100 mg/kg, FT-C: normal (blank) rats, oral FT 100 mg kg^−1, n = 6

AUC0-∞ [1, 3]: 641.77 ± 218.27 µg·h/L
AUC(0-t) [1, 3]: 542.82 ± 141.09 µg·h/L
CLz/F [1, 3]: 0.02 ± 0.01 L/h/kg
Cmax [1, 3]: 88.45 ± 17.93 µg/L
MRT0-t [1, 3]: 6.53 ± 2.11 h
MRT0-∞ [1, 3]: 11.93 ± 15.11 h
T1/2 [1, 3]: 5.74 ± 11.19 h
Tmax [1, 3]: 0.67 ± 0.37 h
AUC0-∞ [1, 4]: 947.33 ± 140.96 ^c μg·h·L^−1
AUC(0-t) [1, 4]: 880.02 ± 141.73 ^d μg·h·L^−1
CLz/F [1, 4]: 0.01 ± 0.00 ^c L·h^−1·kg^−1
Cmax [1, 4]: 105.53 ± 11.68 µg/L
MRT0-t [1, 4]: 7.53 ± 0.85 h
MRT0-∞ [1, 4]: 9.53 ± 3.95 h
T1/2 [1, 4]: 4.47 ± 3.92 h
Tmax [1, 4]: 0.74 ± 1.60 h
AUC0-∞ [1, 5]: 588.72 ± 114.83 µg·h/L
AUC(0-t) [1, 5]: 584.67 ± 122.39 µg·h/L
CLz/F [1, 5]: 0.02 ± 0.00 L/h/kg
Cmax [1, 5]: 99.66 ± 15.57 µg/L
MRT0-t [1, 5]: 7.54 ± 0.95 h
MRT0-∞ [1, 5]: 7.81 ± 0.63 h
T1/2 [1, 5]: 2.18 ± 2.22 h
Tmax [1, 5]: 0.47 ± 0.07 h
AUC0-∞ [1, 6]: 767.88 ± 279.35 µg·h/L
AUC(0-t) [1, 6]: 658.64 ± 172.02 µg·h/L
CLz/F [1, 6]: 0.02 ± 0.01 L/h/kg
Cmax [1, 6]: 165.48 ± 7.83^f μg·L^−1
MRT0-t [1, 6]: 5.33 ± 0.98 ^a^, ^e h
MRT0-∞ [1, 6]: 10.76 ± 12.84 h
T1/2 [1, 6]: 6.40 ± 11.48 h
Tmax [1, 6]: 1.00 ± 0.00 ^f h
AUC0-t in model group compared with control group ([1]; after modeling, p < 0.01, 0.05): significantly higher
AUC0-∞ in model group compared with control group ([1]; after modeling, p < 0.01, 0.05): significantly higher
MRT0-t in the model group treated with FT ([1]; compared with the control group treated with FT and the model group treated with FS): decreased
shape of the drug-time curve ([1]; control group with oral FS): bimodal phenomenon
CLz/F after modeling compared with control group ([1]; oral administration of FS): decrease
Cmax after modeling compared with control group ([1]; oral administration of FT): significant increase
Stability, Accuracy (RE, %) [2, 7]: 6.29%
Stability, Accuracy (RE, %) [2, 8]: −5.50%
Stability, Accuracy (RE, %) [2, 9]: 5.99%
Stability, Accuracy (RE, %) [2, 10]: 9.76%
Stability, Accuracy (RE, %) [2, 11]: −2.61%
Stability, Accuracy (RE, %) [2, 12]: 1.50%
Stability, Accuracy (RE, %) [2, 13]: −8.83%
Stability, Accuracy (RE, %) [2, 14]: 6.50%
Stability, Accuracy (RE, %) [2, 15]: 0.73%
Stability, Accuracy (RE, %) [2, 16]: −3.63%
Stability, Accuracy (RE, %) [2, 17]: 2.54%
Stability, Accuracy (RE, %) [2, 18]: −10.44%
Structure (SMILES): O=C(O)[C@H](O)Cc1ccc(O)c(O)c1 [Danshensu]

AUC(0-t) ([1]; Wistar, rat, plasma, po, 100 mg/kg, AUC0-t, FS-C: normal (blank) rats, oral FS 100 mg kg^−1, n = 6): 107 ± 46.1 µg·h/L
AUC(0-t) ([1]; Wistar, rat, plasma, po, 100 mg/kg, AUC0-t, FT-C: normal (blank) rats, oral FT 100 mg kg^−1, n = 6): 122 ± 30.9 µg·h/L
AUC(0-inf) [1, 19]: 168 ± 139 ng·h/mL
AUC(0-inf) [1, 20]: 162 ± 87.3 ng·h/mL
CL/F [1, 19]: 74.8 mL/min/kg
CL/F [1, 20]: 37 mL/min/kg
Cmax ([1]; Wistar, rat, plasma, po, 100 mg/kg, Cmax, FS-C: normal (blank) rats, oral FS 100 mg kg^−1, n = 6): 13.2 ± 8.35 µg/L
Cmax ([1]; Wistar, rat, plasma, po, 100 mg/kg, Cmax, FT-C: normal (blank) rats, oral FT 100 mg kg^−1, n = 6): 8.58 ± 1.35 µg/L
MRT last [1, 19]: 7.12 ± 2.26 h
MRT last [1, 20]: 8.8 ± 1.62 h
MRT inf [1, 19]: 17 ± 17.6 h
MRT inf [1, 20]: 15 ± 11.6 h
half-life ([1]; Wistar, rat, plasma, po, 100 mg/kg, T1/2, FS-C: normal (blank) rats, oral FS 100 mg kg^−1, n = 6): 9.92 ± 13.7 h
half-life ([1]; Wistar, rat, plasma, po, 100 mg/kg, T1/2, FT-C: normal (blank) rats, oral FT 100 mg kg^−1, n = 6): 7.38 ± 9.48 h
Tmax ([1]; Wistar, rat, plasma, po, 100 mg/kg, Tmax, FS-C: normal (blank) rats, oral FS 100 mg kg^−1, n = 6): 0.63 ± 0.42 h
Tmax ([1]; Wistar, rat, plasma, po, 100 mg/kg, Tmax, FT-C: normal (blank) rats, oral FT 100 mg kg^−1, n = 6): 0.56 ± 0.36 h
Tmax ([1]; Wistar, rat, plasma, po, 100 mg/kg, Tmax, control group, after oral administration of FS or FT): > 0.47 h
shape of the drug-time curve ([1]; both the control and model groups treated with oral FS or FT): bimodal phenomenon
Stability, Accuracy (RE, %) [2, 7]: −0.93%
Stability, Accuracy (RE, %) [2, 8]: 1.81%
Stability, Accuracy (RE, %) [2, 9]: 11.49%
Stability, Accuracy (RE, %) [2, 10]: 3.31%
Stability, Accuracy (RE, %) [2, 11]: −1.96%
Stability, Accuracy (RE, %) [2, 12]: −3.89%
Stability, Accuracy (RE, %) [2, 13]: 2.45%
Stability, Accuracy (RE, %) [2, 14]: 7.09%
Stability, Accuracy (RE, %) [2, 15]: −9.12%
Stability, Accuracy (RE, %) [2, 16]: −10.32%
Stability, Accuracy (RE, %) [2, 17]: 1.08%
Stability, Accuracy (RE, %) [2, 18]: 11.33%
Structure (SMILES): O=C(/C=C/c1ccc(O)c(O)c1/C=C/c1ccc(O)c(O)c1)O[C@H](Cc1ccc(O)c(O)c1)C(=O)O [Salvianolic acid A]

AUC0-∞ [1, 3]: 33.09 ± 32.59 µg·h/L
AUC(0-t) [1, 3]: 30.14 ± 25.77 µg·h/L
CLz/F [1, 3]: 63.67 ± 33.45 L/h/kg
Cmax [1, 3]: 11.01 ± 2.17 µg/L
MRT0-t [1, 3]: 3.65 ± 4.31 h
MRT0-∞ [1, 3]: 4.61 ± 6.46 h
T1/2 [1, 3]: 7.30 ± 4.55 h
Tmax [1, 3]: 0.67 ± 0.26 h
AUC0-∞ [1, 4]: 55.32 ± 49.60 µg·h/L
AUC(0-t) [1, 4]: 39.25 ± 24.96 µg·h/L
CLz/F [1, 4]: 41.35 ± 24.97 L/h/kg
Cmax [1, 4]: 11.09 ± 3.14 µg/L
MRT0-t [1, 4]: 4.52 ± 4.05 h
MRT0-∞ [1, 4]: 10.25 ± 12.88 h
T1/2 [1, 4]: 8.45 ± 8.99 h
Tmax [1, 4]: 0.75 ± 0.27 h
AUC0-∞ [1, 5]: 30.07 ± 23.22 µg·h/L
AUC(0-t) [1, 5]: 29.34 ± 21.99 µg·h/L
CLz/F [1, 5]: 68.05 ± 46.28 L/h/kg
Cmax [1, 5]: 7.05 ± 1.64 ^b μg·L^−1
MRT0-t [1, 5]: 4.27 ± 3.46 h
MRT0-∞ [1, 5]: 4.55 ± 3.95 h
T1/2 [1, 5]: 3.31 ± 1.82 h
Tmax [1, 5]: 0.28 ± 0.14 ^b h
AUC0-∞ [1, 6]: 40.99 ± 46.75 µg·h/L
AUC(0-t) [1, 6]: 29.64 ± 22.98 µg·h/L
CLz/F [1, 6]: 63.65 ± 43.57 L/h/kg
Cmax [1, 6]: 8.95 ± 6.01 µg/L
MRT0-t [1, 6]: 3.90 ± 3.23 h
MRT0-∞ [1, 6]: 8.76 ± 14.72 h
T1/2 [1, 6]: 10.67 ± 9.80 h
Tmax [1, 6]: 1.22 ± 0.66 ^f h
Cmax in FT compared with FS ([1]; normal group, p < 0.01, 0.05): significantly lower
Stability, Accuracy (RE, %) [2, 7]: 7.30%
Stability, Accuracy (RE, %) [2, 8]: −9.02%
Stability, Accuracy (RE, %) [2, 9]: −3.01%
Stability, Accuracy (RE, %) [2, 10]: −13.32%
Stability, Accuracy (RE, %) [2, 11]: 4.15%
Stability, Accuracy (RE, %) [2, 12]: 1.94%
Stability, Accuracy (RE, %) [2, 13]: −1.60%
Stability, Accuracy (RE, %) [2, 14]: −1.94%
Stability, Accuracy (RE, %) [2, 15]: 4.74%
Stability, Accuracy (RE, %) [2, 16]: −3.54%
Stability, Accuracy (RE, %) [2, 17]: −5.18%
Stability, Accuracy (RE, %) [2, 18]: 7.92%
Structure (SMILES): O=C(/C=C/c1ccc(O)c2oc(-c3ccc(O)c(O)c3)cc12)O[C@H](Cc1ccc(O)c(O)c1)C(=O)O [Salvianolic acid C]
